Laboratory results reported in US20240317735A1, “HYDROISOQUINOLINE OR HYDRONAPHTHYRIDINE COMPOUNDS FOR THE TREATMENT OF AUTOIMMUNE DISEASE” (Hoffmann-La Roche Inc., priority 2020, published 2024).

target: T1, TLR9 (Homo sapiens, UniProt Q9NR96); test: HEK293-Blue-hTLR-9 cells assay (SEAP reporter, ODN2006 stimulation); assay type: cell-based; design: host or cells: HEK293 (HEK-Blue hTLR9); conditions: HEK293-Blue-hTLR9 cells, ODN2006, 20 hrs; read-out: HEK/hTLR9 IC50
T1 sequence (Q9NR96 26-1032): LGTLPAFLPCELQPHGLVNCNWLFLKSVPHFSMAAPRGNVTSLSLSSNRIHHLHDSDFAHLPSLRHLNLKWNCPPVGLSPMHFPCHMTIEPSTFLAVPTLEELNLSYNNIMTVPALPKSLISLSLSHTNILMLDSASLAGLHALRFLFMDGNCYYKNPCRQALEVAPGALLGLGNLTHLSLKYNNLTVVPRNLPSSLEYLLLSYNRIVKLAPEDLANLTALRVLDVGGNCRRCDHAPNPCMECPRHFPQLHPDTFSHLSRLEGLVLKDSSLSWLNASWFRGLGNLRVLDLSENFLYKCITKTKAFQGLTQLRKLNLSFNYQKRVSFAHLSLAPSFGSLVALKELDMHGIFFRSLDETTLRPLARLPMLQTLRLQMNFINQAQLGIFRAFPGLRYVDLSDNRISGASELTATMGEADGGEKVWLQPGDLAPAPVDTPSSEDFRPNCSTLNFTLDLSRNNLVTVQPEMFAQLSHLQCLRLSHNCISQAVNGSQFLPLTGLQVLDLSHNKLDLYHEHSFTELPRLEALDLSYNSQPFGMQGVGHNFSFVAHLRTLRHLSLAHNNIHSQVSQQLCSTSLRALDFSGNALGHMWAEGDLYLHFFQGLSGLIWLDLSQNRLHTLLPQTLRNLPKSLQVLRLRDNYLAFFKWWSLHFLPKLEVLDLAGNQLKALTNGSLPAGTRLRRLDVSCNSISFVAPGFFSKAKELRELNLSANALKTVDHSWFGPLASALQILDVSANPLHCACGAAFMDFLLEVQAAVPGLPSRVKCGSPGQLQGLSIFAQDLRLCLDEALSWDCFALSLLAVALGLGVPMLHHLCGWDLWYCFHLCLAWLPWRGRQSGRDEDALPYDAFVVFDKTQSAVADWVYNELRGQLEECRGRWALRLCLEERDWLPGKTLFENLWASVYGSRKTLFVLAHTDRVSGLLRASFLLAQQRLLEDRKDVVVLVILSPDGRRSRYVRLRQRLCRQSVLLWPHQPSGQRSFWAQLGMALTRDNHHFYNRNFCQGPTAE
Method: The following tests were carried out in order to determine the activity of the compounds of formula (I) and (Ia) in HEK293-Blue-hTLR-7/8/9 cells assay.
A stable HEK293-Blue-hTLR-9 cell line was purchased from InvivoGen (Cat. #: hkb-htlr9, San Diego, California, USA). These cells were originally designed for studying the stimulation of human TLR9 by monitoring the activation of NF-κB. A SEAP (secreted embryonic alkaline phosphatase) reporter gene was placed under the control of the IFN-β minimal promoter fused to five NF-κB and AP-1-binding sites. The SEAP was induced by activating NF-κB and AP-1 via stimulating HEK-Blue hTLR9 cells with TLR9 ligands. Therefore the reporter expression was declined by TLR9 antagonist under the stimulation of a ligand, such as ODN2006 (Cat. #: tlrl-2006-1, Invivogen, San Diego, California, USA), for incubation of 20 hrs. The cell culture supernatant SEAP reporter activity was determined using QUANTI-Blue™ kit (Cat. #: rep-qb1, Invivogen, San Diego, California, USA) at a wavelength of 640 nm, a detection medium that turns purple or blue in the presence of alkaline phosphatase.
HEK293-Blue-hTLR9 cells were incubated at a density of 250,000-450,000 cells/mL in a volume of 170 μL in a 96-well plate in Dulbecco's Modified Eagle's medium (DMEM) containing 4.5 g/L glucose, 50 U/mL penicillin, […], […], 2 mM L-glutamine, 10% (v/v) heat-inactivated fetal bovine serum with addition of 20 μL test compound in a serial dilution in the presence of final DMSO at 1% and 10 μL of 20 uM ODN2006 in above DMEM, perform incubation under 37° C. in a CO2 incubator for 20 hrs. Then 20 μL of the supernatant from each well was incubated with 180 μL Quanti-blue substrate solution at 37° C. for 2 h and the absorbance was read at 620˜655 nm using a spectrophotometer.
The signaling pathway that TLR9 activation leads to downstream NF-κB activation has been widely accepted, and therefore similar reporter assay was modified for evaluating TLR9 antagonist.

Compound | IC50
CO[C@@H]1CN(C2CCN(c3ccc4c(c3)[C@@H](C)CN(c3ccnc5c3cnn5C)C4)CC2)C[C@H]1N [Example 11, (3R,4R)-4-methoxy-1-[1-[(4R)-4-methyl-2-(1-methylpyrazolo[3,4-b]pyridin-4-yl)-3,4-dihydro-1H-isoquinolin-6-yl]-4-piperidyl]pyrrolidin-3-amine] | 63 nM
C[C@H]1CN(c2ccnc3c2cnn3C)Cc2ccc(N3C[C@]4(CCNC4)CC3=O)cc21 (single isomer, unassigned) [Example 54] | 334 nM
C[C@H]1CN(c2ccnc3c2cnn3C)Cc2ccc(N3C4CCC3CNC4)cc21 [Example 27, (4R)-6-(3,8-diazabicyclo[3.2.1]octan-8-yl)-4-methyl-2-(1-methylpyrazolo[3,4-b]pyridin-4-yl)-3,4-dihydro-1H-isoquinoline] | 185 nM
C[C@H]1CN(c2ccnc3c2cnn3C)Cc2ccc(N3C[C@H]4CCNC[C@H]4C3=O)cc21 (single isomer, unassigned) [Example 56] | 254 nM
CC1CN(c2ccnc3c2cnn3C)Cc2ccc(N3CCC4(CCNCC4)CC3)cc21 (centres unmarked) [Example 4, 3-[4-methyl-2-(1-methylpyrazolo[3,4-b]pyridin-4-yl)-3,4-dihydro-1H-isoquinolin-6-yl]-3,9-diazaspiro[5.5]undecane] | 275 nM
C[C@H]1CN(c2ccnc3c2cnn3C)Cc2ccc(N3CCNCC3)nc21 [Example 62, (8S)-8-methyl-6-(1-methylpyrazolo[3,4-b]pyridin-4-yl)-2-piperazin-1-yl-7,8-dihydro-5H-1,6-naphthyridine] | 264 nM
C[C@H]1CN(c2ccnc3c2cnn3C)Cc2ccc(N3CC4(CCNC4)CC3=O)cc21 (stereo partly drawn) [Example 52, 2-[(4R)-4-methyl-2-(1-methylpyrazolo[3,4-b]pyridin-4-yl)-3,4-dihydro-1H-isoquinolin-6-yl]-2,7-diazaspiro[4.4]nonan-3-one] | 117 nM
CO[C@@H]1CN(c2ccc3c(c2)[C@@H](C)CN(c2cc(C)nc4c2cnn4C)C3)C[C@H]1N [Example 23, (3R,4R)-4-methoxy-1-[(4R)-2-(1,6-dimethylpyrazolo[3,4-b]pyridin-4-yl)-4-methyl-3,4-dihydro-1H-isoquinolin-6-yl]pyrrolidin-3-amine] | 115 nM
C[C@H]1CN(c2ccnc3c2cnn3C)Cc2ccc(N3CCC(N4CC(N)C4)CC3)cc21 [Example 28, 1-[1-[(4R)-4-methyl-2-(1-methylpyrazolo[3,4-b]pyridin-4-yl)-3,4-dihydro-1H-isoquinolin-6-yl]-4-piperidyl]azetidin-3-amine] | 150 nM
Cc1cc(N2Cc3ccc(N4CCC(O)(CN(C)C)CC4)cc3[C@@H](C)C2)c2cnn(C)c2n1 [Example 14, 4-[(dimethylamino)methyl]-1-[(4R)-2-(1,6-dimethylpyrazolo[3,4-b]pyridin-4-yl)-4-methyl-3,4-dihydro-1H-isoquinolin-6-yl]piperidin-4-ol] | 158 nM
Cc1cc(N2Cc3cnc(N4CCNCC4)cc3[C@@H](C)C2)c2cnn(C)c2n1 [Example 74, (4R)-2-(1,6-dimethylpyrazolo[3,4-b]pyridin-4-yl)-4-methyl-6-piperazin-1-yl-3,4-dihydro-1H-2,7-naphthyridine] | 165 nM
C[C@H]1CN(c2ccnc3c2cnn3C)Cc2ccc(N3CC4(CCNC4)OC3=O)cc21 (stereo partly drawn) [Example 35, 3-[(4R)-4-methyl-2-(1-methylpyrazolo[3,4-b]pyridin-4-yl)-3,4-dihydro-1H-isoquinolin-6-yl]-1-oxa-3,7-diazaspiro[4.4]nonan-2-one] | 182 nM
C[C@H]1CN(c2ccnc3c2cnn3C)Cc2ccc(N3CCN[C@H](CO)C3)cc21 [Example 51, [(2S)-4-[(4R)-4-methyl-2-(1-methylpyrazolo[3,4-b]pyridin-4-yl)-3,4-dihydro-1H-isoquinolin-6-yl]piperazin-2-yl]methanol] | 365 nM
C[C@H]1CN(c2ccnc3c2cnn3C)Cc2ccc(N3CCN[C@@H](CO)C3)cc21 [Example 50, [(2R)-4-[(4R)-4-methyl-2-(1-methylpyrazolo[3,4-b]pyridin-4-yl)-3,4-dihydro-1H-isoquinolin-6-yl]piperazin-2-yl]methanol] | 376 nM
C[C@H]1CN(c2ccnc3c2cnn3C)Cc2ccc(N3CCN(C(=O)C4CNCCO4)CC3)cc21 (stereo partly drawn) [Example 12, morpholin-2-yl-[4-[(4R)-4-methyl-2-(1-methylpyrazolo[3,4-b]pyridin-4-yl)-3,4-dihydro-1H-isoquinolin-6-yl]piperazin-1-yl]methanone] | 298 nM
CCn1ncc2c(N3Cc4ccc(N5CCNCC5)cc4[C@@H](C)C3)ccnc21 [Example 22, (4R)-2-(1-ethylpyrazolo[3,4-b]pyridin-4-yl)-4-methyl-6-piperazin-1-yl-3,4-dihydro-1H-isoquinoline] | 412 nM
Cc1cc(N2Cc3ccc(N4CC5(CNCCO5)C4)nc3[C@@H](C)C2)c2cnn(C)c2n1 [Example 68, 2-[(8S)-6-(1,6-dimethylpyrazolo[3,4-b]pyridin-4-yl)-8-methyl-7,8-dihydro-5H-1,6-naphthyridin-2-yl]-5-oxa-2,8-diazaspiro[3.5]nonane] | 332 nM
C[C@H]1CN(c2ccnc3c2cnn3C)Cc2ccc(N3C[C@@H]4CCNCC4C3=O)cc21 (relative stereo) [Example 55, cis-2-[(4R)-4-methyl-2-(1-methylpyrazolo[3,4-b]pyridin-4-yl)-3,4-dihydro-1H-isoquinolin-6-yl]-3a,4,5,6,7,7a-hexahydro-1H-pyrrolo[3,4-c]pyridin-3-one] | 137 nM
Cc1cc(N2Cc3ccc(N4CCOC5(CNC5)C4)nc3[C@@H](C)C2)c2cnn(C)c2n1 [Example 70, 8-[(8S)-6-(1,6-dimethylpyrazolo[3,4-b]pyridin-4-yl)-8-methyl-7,8-dihydro-5H-1,6-naphthyridin-2-yl]-5-oxa-2,8-diazaspiro[3.5]nonane] | 300 nM
CO[C@@H]1CN(c2ccc3c(n2)[C@@H](C)CN(c2cc(C)nc4c2cnn4C)C3)C[C@H]1N [Example 63, (3R,4R)-4-methoxy-1-[(8S)-6-(1,6-dimethylpyrazolo[3,4-b]pyridin-4-yl)-8-methyl-7,8-dihydro-5H-1,6-naphthyridin-2-yl]pyrrolidin-3-amine] | 236 nM
Cc1cc(N2Cc3ccc(N4CCC(C)(N)CC4)nc3[C@@H](C)C2)c2cnn(C)c2n1 [Example 59, 4-methyl-1-[(8S)-6-(1,6-dimethylpyrazolo[3,4-b]pyridin-4-yl)-8-methyl-7,8-dihydro-5H-1,6-naphthyridin-2-yl]piperidin-4-amine] | 121 nM
Cn1ncc2c(N3Cc4ccc(N5CCC6(CCNCC6)CC5)cc4C(C)(C)C3)ccnc21 [Example 6, 3-[4,4-dimethyl-2-(1-methylpyrazolo[3,4-b]pyridin-4-yl)-1,3-dihydroisoquinolin-6-yl]-3,9-diazaspiro[5.5]undecane] | 112 nM
C[C@H]1CN(c2ccnc3c2cnn3C)Cc2ccc(OC[C@@H]3CNCCN3C=O)cc21 [Example 45, (2S)-2-[[(4R)-4-methyl-2-(1-methylpyrazolo[3,4-b]pyridin-4-yl)-3,4-dihydro-1H-isoquinolin-6-yl]oxymethyl]piperazine-1-carbaldehyde] | 350 nM
